# Assay results taken from patent US10285979B2, “Breast cancer therapeutic agent containing 5′-hydroxy-5-nitro-indirubin-3′-oxime as active ingredient” (ANYGEN CO., LTD., priority 2016, dated 2019).
# Like-named read-outs stand apart in the source and are kept apart here.
# Key:
# [1] = tested on: KB oral cavity cancer cells
# Method: The tumor has been grown after injecting KB oral cavity cancer cells (10×10^6 cells/0.1 ml of non-serum matrigel medium) to the nude mouse. […] The tumor growth has been observed for 28 days.
# The tumor volume and shape in the nude mouse have been observed for 28 days.
# [2] = tested on: TAMR-MCF-7 tamoxifen resistant breast cancer cells; experiment: TAMR-MCF-7 tamoxifen resistant breast cancer xenografted model, intraperitoneal
# [3] = tested on: A549 lung cancer cells
# Excerpt: The tumor has been grown after injecting A549 lung cancer cells to the nude mouse. […] The tumor growth has been observed for 27 days.
# The tumor volume and shape in the nude mouse have been observed for 27 days.
# [4] = tested on: triple negative cell lines; conditions: 7 of 10 types of triple negative cell lines
# [5] = tested on: cancer cell; conditions: DAPI staining
# Excerpt: Further, we have examined the apoptotic body stained with DAPI using a fluorescence microscope to investigate the induction of apoptosis by AGM-130.
# [6] = tested on: HCT-116 colorectal cancer cells; conditions: 10 mg/kg intraperitoneally every other day
# Method: The tumor has been grown after injecting HCT-116 colorectal cancer cells (10×10^6 cells/0.1 ml of non-serum matrigel medium) to the nude mouse.
# (§1) The tumor volume and shape in the nude mouse have been observed for 24 days.
# [7] = tested on: ER positive breast cancer cell lines; conditions: 3 types of ER positive breast cancer cell lines
# [8] = tested on: HL-60(TB); conditions: 10 μM; leukemia cell line HL-60(TB)
# [9] = tested on: cyclin B1 expression; conditions: western blot; G2/M phase
# Excerpt: (§2) Further, we have investigated the cell cycles of MDA-MB-231 breast cancer cell line through Flow cytometry analysis.
# [10] = tested on: MDA-MB-231 breast cancer cell line; conditions: flow cytometry
# Excerpt: as §2
# [11] = Method: Chemical name (IUPAC) of AGM-130 is (2′Z 3′E)-5′-hydroxy-5-nitro indirubin oxime. […] For the practical formulation of injectable aqueous solution, AGM-130 in PEG300 solution is diluted with 0.1 N Na2CO3 in saline solution to 70% aqueous solution with final concentration of 3.75 mg/mL.
# [12] = tested on: Her2 positive breast cancer cell lines; conditions: 4 types of Her2 positive breast cancer cell lines
# [13] = tested on: transplanted A549 cell tumor; conditions: in vivo; cited from earlier work
# [14] = tested on: MDA-MB-231 triple negative breast cancer cells
# Excerpt: After implanting MDA-MB-231 triple negative breast cancer cells to the nude mouse, the tumor has been grown to the 200 mm^3 volume.
# as §1
# [15] = tested on: MCF-7 ER positive breast cancer cells
# Excerpt: as §1
# [16] = tested on: A549 human non-small cell lung cancer cells; conditions: cited from earlier work
# [17] = 3 mg/kg intravenously once a week, day 0
# [18] = 3 mg/kg intravenously once a week, day 3
# [19] = 3 mg/kg intravenously once a week, day 6
# [20] = 3 mg/kg intravenously once a week, day 9
# [21] = 3 mg/kg intravenously once a week, day 12
# [22] = 3 mg/kg intravenously once a week, day 15
# [23] = 3 mg/kg intravenously once a week, day 18
# [24] = 3 mg/kg intravenously once a week, day 21
# [25] = 3 mg/kg intravenously once a week, day 24
# [26] = 7 mg/kg intravenously once a week, day 0
# [27] = 7 mg/kg intravenously once a week, day 3
# [28] = 7 mg/kg intravenously once a week, day 6
# [29] = 7 mg/kg intravenously once a week, day 9
# [30] = 7 mg/kg intravenously once a week, day 12
# [31] = 7 mg/kg intravenously once a week, day 15
# [32] = 7 mg/kg intravenously once a week, day 18
# [33] = 7 mg/kg intravenously once a week, day 21
# [34] = 7 mg/kg intravenously once a week, day 24
# [35] = 14 mg/kg intravenously once a week, day 0
# [36] = 14 mg/kg intravenously once a week, day 3
# [37] = 14 mg/kg intravenously once a week, day 6
# [38] = 14 mg/kg intravenously once a week, day 9
# [39] = 14 mg/kg intravenously once a week, day 12
# [40] = 14 mg/kg intravenously once a week, day 15
# [41] = 14 mg/kg intravenously once a week, day 18
# [42] = 14 mg/kg intravenously once a week, day 21
# [43] = 14 mg/kg intravenously once a week, day 24
smiles,measurement,setting,value
"O=C1Nc2ccc([N+](=O)[O-])cc2C1=C1Nc2ccc(O)cc2C1=NO [AGM-130, (2′Z 3′E)-5′-hydroxy-5-nitro indirubin oxime]",volume of tumor,"[1]; 5/10/20 mg/kg intraperitoneally every other day, FIG. 11",cannot be reduced significantly
same,reduction of volume of tumor compared to paclitaxel,[1]; paclitaxel 10 mg/kg positive control,cannot result in significant reduction
same,reduction of tumor volume,"[2]; 10 mg/kg and 40 mg/kg, FIG. 8",significantly observed
same,tumor volume reduction compared to control group,[2]; 10 mg/kg intraperitoneally twice a week,about 54%
same,tumor volume reduction compared to control group,[2]; 40 mg/kg intraperitoneally twice a week,about 45%
same,weight of mouse compared to control group,[2]; 10/40 mg/kg,changed significantly
same,volume of tumor,"[3]; 10/20/40 mg/kg intraperitoneally every other day, FIG. 14",cannot be reduced significantly
same,weight of tumor,"[3]; 10/20/40 mg/kg intraperitoneally, FIG. 15a",cannot be reduced significantly
same,apoptosis in tumor (TUNEL assay),"[3]; paraffin embedded tumor region, compared to vehicle, FIG. 15b",induces the apoptosis
same,IC50,[4],< 1000 nM
same,induction of apoptosis,[5],mitochondria-dependent apoptosis
same,volume of tumor,[6]; FIG. 12,cannot be reduced significantly
same,volume of tumor,[6]; FIG. 13,cannot be reduced significantly
same,IC50,[7],< 1000 nM
same,Growth percent,[8],3.67%
same,cyclin B1 expression,[9],remarkably reduced
same,cell cycle phases,[10],decreased G1 phase and increased G2/M phase
same,solubility,[11]; in DMF and DMSO,soluble
same,solubility,[11]; in ethanol and acetone,very difficult to dissolve
same,solubility,[11]; in water,practically insoluble
same,IC50,[12],> 3000 nM
same,tumor growth,[13],dose-dependently suppresses
same,tumor volume reduction compared to control group,[14]; 3 mg/kg intravenously,about 31%
same,volume of tumor,[14]; [17],341.5 ± 14.4
same,volume of tumor,[14]; [18],474.6 ± 26.4
same,volume of tumor,[14]; [19],602.5 ± 44.1
same,volume of tumor,[14]; [20],693.1 ± 61.0
same,volume of tumor,[14]; [21],838.0 ± 79.9
same,volume of tumor,[14]; [22],996.9 ± 79.9
same,volume of tumor,[14]; [23],1217.5 ± 81.8
same,volume of tumor,[14]; [24],1398.0 ± 78.1
same,volume of tumor,[14]; [25],1871.4 ± 175.5
same,tumor volume reduction compared to control group,[14]; 7 mg/kg intravenously,about 47%
same,volume of tumor,[14]; [26],355.4 ± 10.7
same,volume of tumor,[14]; [27],451.9 ± 10.2
same,volume of tumor,[14]; [28],543.4 ± 10.9
same,volume of tumor,[14]; [29],615.5 ± 19.0
same,volume of tumor,[14]; [30],651.0 ± 47.1
same,volume of tumor,[14]; [31],677.9 ± 46.7
same,volume of tumor,[14]; [32],899.6 ± 59.6
same,volume of tumor,[14]; [33],1108.9 ± 88.1
same,volume of tumor,[14]; [34],1436.1 ± 84.8
same,tumor volume reduction compared to control group,[14]; 14 mg/kg intravenously,about 61%
same,volume of tumor,[14]; [35],342.1 ± 20.7
same,volume of tumor,[14]; [36],408.5 ± 10.3
same,volume of tumor,[14]; [37],470.8 ± 20.4
same,volume of tumor,[14]; [38],525.4 ± 35.6
same,volume of tumor,[14]; [39],535.3 ± 39.0
same,volume of tumor,[14]; [40],581.5 ± 44.8
same,volume of tumor,[14]; [41],696.1 ± 54.6
same,volume of tumor,[14]; [42],831.0 ± 75.1
same,volume of tumor,[14]; [43],1064.3 ± 39.8
same,weight of tumor,"[14]; intravenously, FIG. 6",dose-dependently reduced
same,tumor volume reduction compared to control group,[15]; 3 mg/kg intravenously,about 49%
same,volume of tumor,[15]; [17],131.9 ± 8.6
same,volume of tumor,[15]; [18],167.5 ± 7.1
same,volume of tumor,[15]; [19],182.3 ± 4.2
same,volume of tumor,[15]; [20],253.3 ± 7.9
same,volume of tumor,[15]; [21],311.9 ± 2.3
same,volume of tumor,[15]; [22],337.5 ± 11.0
same,volume of tumor,[15]; [23],359.8 ± 15.6
same,volume of tumor,[15]; [24],408.2 ± 19.0
same,volume of tumor,[15]; [25],434.5 ± 18.3
same,tumor volume reduction compared to control group,[15]; 7 mg/kg intravenously,about 64%
same,volume of tumor,[15]; [26],129.1 ± 3.8
same,volume of tumor,[15]; [27],166.9 ± 7.4
same,volume of tumor,[15]; [28],190.0 ± 6.3
same,volume of tumor,[15]; [29],205.6 ± 11.4
same,volume of tumor,[15]; [30],235.6 ± 7.1
same,volume of tumor,[15]; [31],267.3 ± 9.4
same,volume of tumor,[15]; [32],288.1 ± 6.2
same,volume of tumor,[15]; [33],300.2 ± 15.4
same,volume of tumor,[15]; [34],310.1 ± 18.2
same,tumor volume reduction compared to control group,[15]; 14 mg/kg intravenously,about 69%
same,volume of tumor,[15]; [35],127.8 ± 2.4
same,volume of tumor,[15]; [36],156.8 ± 4.7
same,volume of tumor,[15]; [37],180.6 ± 5.0
same,volume of tumor,[15]; [38],202.9 ± 3.8
same,volume of tumor,[15]; [39],210.6 ± 5.1
same,volume of tumor,[15]; [40],234.7 ± 17.8
same,volume of tumor,[15]; [41],249.4 ± 15.3
same,volume of tumor,[15]; [42],264.8 ± 12.9
same,volume of tumor,[15]; [43],268.7 ± 8.7
same,cell cycle,[16],arrests the cell cycle of G2/M phase
same,proliferation,[16],significantly inhibits the proliferation
